Results taken from US9834571B2, “Compounds for inhibiting cell proliferation in EGFR-driven cancers” (ARIAD Pharmaceuticals, Inc., priority 2012, dated 2017).
pIC50: −log10 of the molar value. Like-named read-outs stand apart in the source and are kept apart here.

Tests used:
[1] = molecular target: human EGFR (native sequence) (Homo sapiens, UniProt P00533); assay: Kinase inhibitory activity against human EGFR (native sequence); assay type: biochemical; conditions: 10 μM ATP, read-out: IC50 for kinase inhibition, EGFR
Procedure, shortened: (§1)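 Testing covers a ten-concentration range beginning at 3 μM, performed once per concentration at an ATP level of 10 μM.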

EGFR L858R = EGFR L858R (Homo sapiens, UniProt P00533, L858R); assay: Kinase inhibitory activity against EGFR bearing the L858R mutation; assay type: biochemical; conditions: 10 μM ATP, read-out: IC50 for kinase inhibition, EGFR L858R
Procedure, shortened: as §1

EGFR L858R/T790M = EGFR L858R/T790M (Homo sapiens, UniProt P00533, L858R/T790M); assay: Kinase inhibitory activity against EGFR bearing the L858R/T790M double mutation; assay type: biochemical; conditions: 10 μM ATP, read-out: IC50 for kinase inhibition, EGFR L858R T790M
Procedure, shortened: as §1

[2] = molecular target: T1, BaF3 cells expressing the target EGFR mutations (Homo sapiens, UniProt P00533, T790M, cells depend on it, form not given); assay: Antiproliferative activity (MTT) against BaF3 cells expressing the target EGFR mutations; assay type: cell-based; conditions: BAF3 EGFR DEL T790M PURO POOL cells, read-out: IC50, BAF3 EGFR DEL T790M PURO POOL
T1 construct: IC50, BAF3 EGFR DEL T790M PURO POOL; other: BAF3 EGFR DEL T790M PURO POOL cells, MTT; other: BAF3 EGFR DEL T790M PURO POOL cells; MTT
Procedure, shortened: (§2)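 MTT read-out; BaF3 lines carrying EGFR mutations vs wildtype-EGFR BaF3 control.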

[3] = molecular target: T2, BaF3 cells expressing the target EGFR mutations (Homo sapiens, UniProt P00533, T790M/L858R, cells depend on it); assay: as above; assay type: cell-based; conditions: BAF3 EGFR L858R-T790M PURO POOL cells, read-out: IC50, BAF3 EGFR L858R-T790M PURO POOL
T2 construct: IC50, BAF3 EGFR L858R-T790M PURO POOL; other: BAF3 EGFR L858R-T790M PURO POOL cells, MTT; IC50, BAF3 EGFR L858R-T790M PURO POOL; other: BAF3 EGFR L858R-T790M PURO POOL cells; MTT
Procedure, shortened: as §2

[4] = system: BaF3 cells expressing wildtype EGFR; assay: Antiproliferative activity (MTT) against control BaF3 cells expressing wildtype EGFR; assay type: cell-based; conditions: Mus musculus
Procedure, shortened: as §2

[5] = EGFR L858R/T790M double mutation
[6] = 10 pt curves, 3 μM top concentration

Chain of EGFR L858R (P00533 25-1210 L858R): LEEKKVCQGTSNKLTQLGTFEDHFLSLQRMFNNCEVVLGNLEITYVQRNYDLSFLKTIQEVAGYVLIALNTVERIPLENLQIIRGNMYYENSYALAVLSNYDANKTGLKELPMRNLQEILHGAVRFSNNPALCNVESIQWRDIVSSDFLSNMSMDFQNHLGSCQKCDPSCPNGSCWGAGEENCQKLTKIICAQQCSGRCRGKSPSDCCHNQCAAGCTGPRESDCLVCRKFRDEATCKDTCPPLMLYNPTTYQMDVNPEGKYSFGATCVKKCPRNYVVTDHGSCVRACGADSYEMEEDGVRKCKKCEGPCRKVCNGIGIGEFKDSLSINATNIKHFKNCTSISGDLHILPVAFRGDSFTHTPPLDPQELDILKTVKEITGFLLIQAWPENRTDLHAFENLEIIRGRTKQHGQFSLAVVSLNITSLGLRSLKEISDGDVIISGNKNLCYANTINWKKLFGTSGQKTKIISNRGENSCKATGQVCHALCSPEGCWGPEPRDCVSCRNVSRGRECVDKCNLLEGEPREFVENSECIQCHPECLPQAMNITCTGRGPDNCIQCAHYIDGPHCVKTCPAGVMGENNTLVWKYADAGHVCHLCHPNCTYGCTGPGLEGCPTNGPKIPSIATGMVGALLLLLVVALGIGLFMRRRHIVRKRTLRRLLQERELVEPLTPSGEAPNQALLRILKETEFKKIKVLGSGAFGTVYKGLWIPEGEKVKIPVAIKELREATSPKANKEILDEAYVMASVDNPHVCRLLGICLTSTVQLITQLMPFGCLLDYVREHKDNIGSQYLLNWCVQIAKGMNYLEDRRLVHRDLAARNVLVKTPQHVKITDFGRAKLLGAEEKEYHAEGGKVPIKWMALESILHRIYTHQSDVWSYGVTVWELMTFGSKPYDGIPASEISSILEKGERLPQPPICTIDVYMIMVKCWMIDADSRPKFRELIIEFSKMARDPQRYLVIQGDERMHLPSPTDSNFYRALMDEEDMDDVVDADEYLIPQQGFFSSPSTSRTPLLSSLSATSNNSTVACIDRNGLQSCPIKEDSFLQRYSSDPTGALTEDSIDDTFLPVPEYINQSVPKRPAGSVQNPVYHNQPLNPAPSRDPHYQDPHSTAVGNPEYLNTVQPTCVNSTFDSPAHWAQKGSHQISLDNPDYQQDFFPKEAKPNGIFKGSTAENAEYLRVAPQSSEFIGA
Chain of human EGFR (native sequence) (P00533 25-1210): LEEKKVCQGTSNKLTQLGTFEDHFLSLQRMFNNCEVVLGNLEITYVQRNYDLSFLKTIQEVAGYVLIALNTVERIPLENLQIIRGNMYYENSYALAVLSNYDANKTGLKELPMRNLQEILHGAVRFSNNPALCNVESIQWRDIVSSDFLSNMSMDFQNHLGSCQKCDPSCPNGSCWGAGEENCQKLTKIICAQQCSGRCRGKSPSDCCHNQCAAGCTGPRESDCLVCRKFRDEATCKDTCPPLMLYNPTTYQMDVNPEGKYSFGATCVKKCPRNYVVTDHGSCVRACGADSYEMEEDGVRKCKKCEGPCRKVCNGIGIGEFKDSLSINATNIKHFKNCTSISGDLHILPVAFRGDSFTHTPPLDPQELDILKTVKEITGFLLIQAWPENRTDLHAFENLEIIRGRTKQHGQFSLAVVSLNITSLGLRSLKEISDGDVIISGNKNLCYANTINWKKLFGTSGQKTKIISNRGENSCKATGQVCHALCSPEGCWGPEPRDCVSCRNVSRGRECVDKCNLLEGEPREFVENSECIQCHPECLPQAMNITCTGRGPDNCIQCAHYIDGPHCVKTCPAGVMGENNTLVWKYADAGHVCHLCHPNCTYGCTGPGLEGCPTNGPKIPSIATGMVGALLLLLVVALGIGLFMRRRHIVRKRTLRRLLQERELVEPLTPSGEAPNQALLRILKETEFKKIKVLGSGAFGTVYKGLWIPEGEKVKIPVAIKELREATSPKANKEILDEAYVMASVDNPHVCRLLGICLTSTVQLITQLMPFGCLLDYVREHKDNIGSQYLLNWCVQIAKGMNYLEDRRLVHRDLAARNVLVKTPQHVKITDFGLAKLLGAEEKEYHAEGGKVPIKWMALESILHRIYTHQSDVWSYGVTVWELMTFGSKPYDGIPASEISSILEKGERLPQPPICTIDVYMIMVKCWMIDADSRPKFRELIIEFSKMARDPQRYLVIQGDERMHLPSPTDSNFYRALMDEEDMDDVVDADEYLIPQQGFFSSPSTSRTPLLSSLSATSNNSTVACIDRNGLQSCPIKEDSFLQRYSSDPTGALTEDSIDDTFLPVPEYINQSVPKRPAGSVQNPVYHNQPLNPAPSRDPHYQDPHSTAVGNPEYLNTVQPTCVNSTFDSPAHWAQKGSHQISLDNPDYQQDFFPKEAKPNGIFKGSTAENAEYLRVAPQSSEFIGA
T1 sequence (P00533 with tags, fused parts or gaps DEL746-750/T790M, form open): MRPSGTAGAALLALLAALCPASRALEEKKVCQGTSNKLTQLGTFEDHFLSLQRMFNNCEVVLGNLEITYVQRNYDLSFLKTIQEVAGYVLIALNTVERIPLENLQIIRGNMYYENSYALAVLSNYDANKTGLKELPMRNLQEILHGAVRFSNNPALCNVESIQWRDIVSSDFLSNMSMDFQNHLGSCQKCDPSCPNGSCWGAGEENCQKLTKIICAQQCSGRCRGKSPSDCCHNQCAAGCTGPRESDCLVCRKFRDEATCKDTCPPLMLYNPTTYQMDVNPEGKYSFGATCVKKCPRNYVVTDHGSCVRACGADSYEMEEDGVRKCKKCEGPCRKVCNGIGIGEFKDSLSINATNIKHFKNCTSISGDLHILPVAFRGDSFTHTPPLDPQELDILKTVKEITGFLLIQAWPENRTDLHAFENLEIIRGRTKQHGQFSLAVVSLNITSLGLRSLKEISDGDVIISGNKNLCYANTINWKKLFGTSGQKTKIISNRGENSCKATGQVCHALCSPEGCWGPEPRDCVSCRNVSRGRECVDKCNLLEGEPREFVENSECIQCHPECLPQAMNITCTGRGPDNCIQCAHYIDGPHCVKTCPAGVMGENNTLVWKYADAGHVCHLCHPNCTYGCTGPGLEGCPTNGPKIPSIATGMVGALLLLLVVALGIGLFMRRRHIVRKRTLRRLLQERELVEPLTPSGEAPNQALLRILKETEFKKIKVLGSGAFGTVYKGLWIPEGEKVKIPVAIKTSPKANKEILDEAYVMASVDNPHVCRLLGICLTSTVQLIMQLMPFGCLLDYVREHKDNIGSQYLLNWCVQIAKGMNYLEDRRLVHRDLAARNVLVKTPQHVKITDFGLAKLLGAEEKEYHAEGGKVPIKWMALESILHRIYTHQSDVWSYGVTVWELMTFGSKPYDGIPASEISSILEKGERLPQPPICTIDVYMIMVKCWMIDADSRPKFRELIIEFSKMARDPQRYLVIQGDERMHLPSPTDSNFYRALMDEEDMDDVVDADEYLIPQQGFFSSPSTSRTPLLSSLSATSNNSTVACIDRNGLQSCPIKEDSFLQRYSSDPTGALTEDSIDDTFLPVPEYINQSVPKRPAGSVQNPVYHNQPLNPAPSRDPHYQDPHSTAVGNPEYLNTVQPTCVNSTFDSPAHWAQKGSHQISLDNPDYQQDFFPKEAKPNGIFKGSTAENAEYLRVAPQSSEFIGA
Chain of EGFR L858R/T790M (P00533 25-1210 T790M/L858R): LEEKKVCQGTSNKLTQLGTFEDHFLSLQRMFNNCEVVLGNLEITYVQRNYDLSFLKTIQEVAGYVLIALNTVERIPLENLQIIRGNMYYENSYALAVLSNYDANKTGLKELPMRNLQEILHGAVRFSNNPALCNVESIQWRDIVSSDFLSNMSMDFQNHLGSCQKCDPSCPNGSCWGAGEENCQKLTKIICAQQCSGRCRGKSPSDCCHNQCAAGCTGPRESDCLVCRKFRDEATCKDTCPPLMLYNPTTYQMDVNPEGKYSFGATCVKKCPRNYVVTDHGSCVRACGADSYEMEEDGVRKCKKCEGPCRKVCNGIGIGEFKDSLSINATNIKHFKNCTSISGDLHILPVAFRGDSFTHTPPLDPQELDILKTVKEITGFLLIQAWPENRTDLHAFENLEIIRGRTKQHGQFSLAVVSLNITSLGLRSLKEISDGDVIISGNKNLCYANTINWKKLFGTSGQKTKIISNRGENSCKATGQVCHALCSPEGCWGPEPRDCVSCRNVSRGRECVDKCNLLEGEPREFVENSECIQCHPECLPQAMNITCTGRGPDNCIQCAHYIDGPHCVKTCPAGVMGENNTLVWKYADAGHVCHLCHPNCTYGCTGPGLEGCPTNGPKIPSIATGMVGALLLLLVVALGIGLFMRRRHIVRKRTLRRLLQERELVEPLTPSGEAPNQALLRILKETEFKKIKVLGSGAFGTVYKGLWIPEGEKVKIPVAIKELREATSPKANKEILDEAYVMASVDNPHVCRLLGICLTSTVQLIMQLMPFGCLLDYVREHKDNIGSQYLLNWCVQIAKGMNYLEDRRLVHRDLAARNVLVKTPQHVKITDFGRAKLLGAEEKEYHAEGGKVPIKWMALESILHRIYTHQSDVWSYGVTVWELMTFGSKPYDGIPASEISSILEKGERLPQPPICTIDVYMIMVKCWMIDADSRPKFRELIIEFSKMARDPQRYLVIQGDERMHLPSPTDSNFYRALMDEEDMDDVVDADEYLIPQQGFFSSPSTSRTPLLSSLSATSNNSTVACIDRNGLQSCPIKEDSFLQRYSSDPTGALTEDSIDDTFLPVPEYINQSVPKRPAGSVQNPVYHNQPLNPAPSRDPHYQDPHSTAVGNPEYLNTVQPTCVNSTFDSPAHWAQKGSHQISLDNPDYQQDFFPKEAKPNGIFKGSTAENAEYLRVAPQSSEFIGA

| pIC50 ([1]; human EGFR native sequence) | pIC50 (EGFR L858R; EGFR L858R) | pIC50 (EGFR L858R/T790M; [5]) | GI50 [2] [nM] | GI50 [3] [nM] | pIC50 [1, 6] | pIC50 (EGFR L858R; [6]) | pIC50 (EGFR L858R/T790M; [6]) | SMILES | pIC50 ([4]; BAF3 PARENTAL cells (control)) | pIC50 ([4]; BAF3 parental cells) |
| --- | --- | --- | --- | --- | --- | --- | --- | --- | --- | --- |
| > 7.30 | > 7.30 | > 7.30 | 101 to 250 | ≥ 250 | – | – | – | COc1cc(P(C)(C)=O)ccc1Nc1ncc(Cl)c(Oc2cccc(NC(=O)C#CCN(C)C)c2)n1 [Example 83, N-(3-((5-chloro-2-((4-(dimethylphosphoryl)-2-methoxyphenyl)amino)pyrimidin-4-yl)oxy)phenyl)-4-(dimethylamino)but-2-ynamide] | ≤ 6.60 | – |
| > 7.30 | > 7.30 | > 7.30 | < 50 | < 50 | – | – | – | C=CC(=O)Nc1cc(Nc2ncc(Cl)c(Nc3ccccc3P(C)(C)=O)n2)c(OC)cc1OC1CCN(C)C1 (stereo not drawn) [Example 13, N-(5-((5-chloro-4-((2-(dimethylphosphoryl)phenyl)amino)pyrimidin-2-yl)amino)-4-methoxy-2-((1-methylpyrrolidin-3-yl)oxy)phenyl)acrylamide] | ≤ 6.60 | – |
| ≤ 6.60 | > 7.30 | > 7.30 | < 50 | < 50 | – | – | – | COc1ccc(NC(=O)C#Cc2ccccc2)cc1Nc1ncc(Cl)c(Nc2ccccc2P(C)(C)=O)n1 [Example 93, N-(3-((5-chloro-4-((2-(dimethylphosphoryl)phenyl)amino)pyrimidin-2-yl)amino)-4-methoxyphenyl)-3-phenylpropiolamide] | ≤ 6.60 | – |
| > 7.30 | > 7.30 | > 7.30 | < 50 | < 50 | – | – | – | C=CC(=O)Nc1cc(Nc2ncc(Cl)c(Nc3ccccc3P(C)(C)=O)n2)c(OC)cc1N1CCC(N2CCCC2)C1 (stereo not drawn) [Example 36, N-(2-([1,3′-bipyrrolidin]-1′-yl)-5-((5-chloro-4-((2-(dimethylphosphoryl)phenyl)amino)pyrimidin-2-yl)amino)-4-methoxyphenyl)acrylamide] | ≤ 6.60 | – |
| – | – | – | < 50 | < 50 | 7.00 to 7.30 | > 7.30 | > 7.30 | C=CC(=O)Nc1cc(Nc2ncc(Cl)c(Nc3ccccc3P(C)(C)=O)n2)c(OC)cc1C#CC(C)(C)N1CCCC1 [Example 116, N-(5-((5-chloro-4-((2-(dimethylphosphoryl)phenyl)amino)pyrimidin-2-yl)amino)-4-methoxy-2-(3-methyl-3-(pyrrolidin-1-yl)but-1-yn-1-yl)phenyl)acrylamide] | – | ≤ 6.60 |
| – | – | – | < 50 | < 50 | > 7.30 | > 7.30 | > 7.30 | C=CC(=O)Nc1cc(Nc2ncc(Cl)c(Nc3ccccc3P(C)(C)=O)n2)c(Cl)cc1C#CCN(C)C [Example 156, N-(4-chloro-5-((5-chloro-4-((2-(dimethylphosphoryl)phenyl)amino)pyrimidin-2-yl)amino)-2-(3-(dimethylamino)prop-1-yn-1-yl)phenyl)acrylamide] | – | ≤ 6.60 |
| > 7.30 | > 7.30 | > 7.30 | < 50 | < 50 | – | – | – | C=C(CN1CCC(N2CCN(C)CC2)CC1)C(=O)Nc1ccc(OC)c(Nc2ncc(Cl)c(Nc3ccccc3P(C)(C)=O)n2)c1 [Example 45, N-(3-((5-chloro-4-((2-(dimethylphosphoryl)phenyl)amino)pyrimidin-2-yl)amino)-4-methoxyphenyl)-2-((4-(4-methylpiperazin-1-yl)piperidin-1-yl)methyl)acrylamide] | ≤ 6.60 | – |
| ≤ 6.60 | 7.00 to 7.30 | > 7.30 | ≥ 250 | ≥ 250 | – | – | – | C=C(CN1CCS(=O)(=O)CC1)C(=O)Nc1ccc(OC)c(Nc2ncc(Cl)c(Nc3ccccc3P(C)(C)=O)n2)c1 [Example 46, N-(3-((5-chloro-4-((2-(dimethylphosphoryl)phenyl)amino)pyrimidin-2-yl)amino)-4-methoxyphenyl)-2-((1,1-dioxidothiomorpholino)methyl)acrylamide] | ≤ 6.60 | – |
| ≤ 6.60 | > 7.30 | 7.00 to 7.30 | 50 to 100 | 101 to 250 | – | – | – | C=CC(=O)Nc1cc(Nc2ncc(Cl)c(Nc3ccccc3P(C)(C)=O)n2)c(OC)cc1OCC1CCOCC1 [Example 6, N-(5-((5-chloro-4-((2-(dimethylphosphoryl)phenyl)amino)pyrimidin-2-yl)amino)-4-methoxy-2-((tetrahydro-2H-pyran-4-yl)methoxy)phenyl)acrylamide] | ≤ 6.60 | – |
| – | – | – | < 50 | < 50 | > 7.30 | > 7.30 | > 7.30 | C=CC(=O)Nc1cc(Nc2ncc(Cl)c(Nc3ccccc3P(C)(C)=O)n2)c(OC)cc1C#CCN(C)C [Example 124, N-(5-((5-chloro-4-((2-(dimethylphosphoryl)phenyl)amino)pyrimidin-2-yl)amino)-2-(3-(dimethylamino)prop-1-yn-1-yl)-4-methoxyphenyl)acrylamide] | – | ≤ 6.60 |
| > 7.30 | > 7.30 | > 7.30 | 101 to 250 | ≥ 250 | – | – | – | C=CC(=O)Nc1cc(Nc2ncc(Cl)c(Nc3ccccc3P(C)(C)=O)n2)c(OC)cc1N1CCC(N2CCC(O)C2)C1 (stereo not drawn) [Example 35, N-(5-((5-chloro-4-((2-(dimethylphosphoryl)phenyl)amino)pyrimidin-2-yl)amino)-2-(3-hydroxy-[1,3′-bipyrrolidin]-1′-yl)-4-methoxyphenyl)acrylamide] | ≤ 6.60 | – |
| – | – | – | < 50 | < 50 | > 7.30 | > 7.30 | > 7.30 | C=CC(=O)Nc1cc(Nc2ncc(Cl)c(Nc3ccccc3P(C)(C)=O)n2)c(OC)cc1OC(CF)CN(CC)CC (stereo not drawn) [Example 121, N-(5-((5-chloro-4-((2-(dimethylphosphoryl)phenyl)amino)pyrimidin-2-yl)amino)-2-((1-(diethylamino)-3-fluoropropan-2-yl)oxy)-4-methoxyphenyl)acrylamide] | – | ≤ 6.60 |
| 6.60 to 7.00 | > 7.30 | > 7.30 | ≥ 250 | ≥ 250 | – | – | – | COc1ccc(NC(=O)/C=C/C2(N)CC2)cc1Nc1ncc(Cl)c(Nc2ccccc2P(C)(C)=O)n1 [Example 94, (E)-3-(1-aminocyclopropyl)-N-(3-((5-chloro-4-((2-(dimethylphosphoryl)phenyl)amino)pyrimidin-2-yl)amino)-4-methoxyphenyl)acrylamide] | ≤ 6.60 | – |
| > 7.30 | > 7.30 | > 7.30 | < 50 | < 50 | – | – | – | C=CC(=O)Nc1cc(Nc2ncc(Cl)c(Nc3ccccc3P(C)(C)=O)n2)c(OC)cc1N1CCC(N2CCCCC2)C1 (stereo not drawn) [Example 33, N-(5-((5-chloro-4-((2-(dimethylphosphoryl)phenyl)amino)pyrimidin-2-yl)amino)-4-methoxy-2-(3-(piperidin-1-yl)pyrrolidin-1-yl)phenyl)acrylamide] | ≤ 6.60 | – |
| > 7.30 | > 7.30 | > 7.30 | < 50 | < 50 | – | – | – | C=CC(=O)Nc1cc(Nc2ncc(Cl)c(Nc3ccccc3P(C)(C)=O)n2)c(OC)cc1N1CCC(N(CC)CC)C1 (stereo not drawn) [Example 34, N-(5-((5-chloro-4-((2-(dimethylphosphoryl)phenyl)amino)pyrimidin-2-yl)amino)-2-(3-(diethylamino)pyrrolidin-1-yl)-4-methoxyphenyl)acrylamide] | ≤ 6.60 | – |
| > 7.30 | > 7.30 | > 7.30 | < 50 | < 50 | – | – | – | C=C(CN1CCC(O)C1)C(=O)Nc1ccc(OC)c(Nc2ncc(Cl)c(Nc3ccccc3P(C)(C)=O)n2)c1 (stereo not drawn) [Example 53, N-(3-((5-chloro-4-((2-(dimethylphosphoryl)phenyl)amino)pyrimidin-2-yl)amino)-4-methoxyphenyl)-2-((3-hydroxypyrrolidin-1-yl)methyl)acrylamide] | ≤ 6.60 | – |
| – | – | – | 101 to 250 | ≥ 250 | ≤ 6.60 | > 7.30 | > 7.30 | C=CC(=O)Nc1ccc(OC)c(Nc2ncc(Cl)c(Nc3cnccc3P(C)(C)=O)n2)c1 [Example 164, N-(3-((5-chloro-4-((4-(dimethylphosphoryl)pyridin-3-yl)amino)pyrimidin-2-yl)amino)-4-methoxyphenyl)acrylamide] | – | ≤ 6.60 |
